Columns and labels:
Type in all cases: cell-based
Conditions in all cases: compounds at 50 nM and 500 nM
[1] = molecular target: T1, IKZF2 (Homo sapiens, UniProt Q96SW2+Q9UKS7); test: Western blot degradation of IKZF2 in hPBMCs (24 h)
T1 construct: The supernatant was aspirated as the extracted total cell protein; endogenous in cells; host or cells: human peripheral blood mononuclear cells (hPBMCs)
Protocol: (§1) Conventional Western blot assay was performed to evaluate the effects of the compounds of the present disclosure on the expression of target proteins in cells. • (1) Cell Seeding and Protein Harvesting: Human peripheral blood mononuclear cells (hPBMCs) at a density of 1×10^6 cells/mL were thawed according to the PBMC Recovery Protocol (Milecell Biotechnologies Inc, Shanghai). The cells were then treated with the compounds of the present disclosure (including the compounds listed in Table 1, and the Examples 1-498 compounds) at concentrations of 50 nM and 500 nM. Controls included a negative control (DMSO) and a positive control (the commercial immunomodulatory drug lenalidomide), both processed following the identical experimental protocol as the compounds of the present disclosure. After 24 hours of compounds treatment, cells were harvested and lysed in RIPA protein lysate containing protease inhibitors on ice for 30 min, followed by centrifugation. The supernatant was aspirated as the extracted total cell protein. The protein concentration of the supernatant was determined using the conventional BCA (Bicinchoninic Acid) assay. • (2) To the collected supernatant, 5×SDS sample loading buffer was added, followed by denaturation at 95 °C for 5 minutes. The denatured samples were then separated by SDS-PAGE electrophoresis on a polyacrylamide gel. Proteins were transferred to a nitrocellulose membrane (0.45 μm NC membrane), blocked with blocking buffer at room temperature for 1 hour, and subjected to antibody incubation and development procedures according to the antibody manufacturer's instructions (Cell Signaling Technology).
(§2) Half-Maximal Degradation Concentration value (the drug concentration required for degrading proteins by 50%, abbreviated as DC50) reads method: comparing the grayscale values of Western blot bands from drug-treated samples with those from blank DMSO-treated controls, and identifying the drug concentration range at which the grayscale value is half that of the DMSO-treated control bands.
(§3) DC50 values can be calculated using ImageJ software to measure grayscale values of Western blot bands from drug-treated samples. The concentration-response curve is fitted to estimate the drug concentration corresponding to half the grayscale value.
(§4) Target protein remaining (%) refers to the percentage of target protein remaining in cells after treatment with protein degrader compounds.
(§5) Calculation method for target protein remaining (%): Use ImageJ software to measure grayscale values of Western blot bands from drug (protein degrader)-treated samples. The grayscale value of drug-treated bands is divided by that of internal control protein bands, and the resulting quotient is normalized to obtain the relative percentage of remaining target protein after protein degrader treatment.
(§6) Target protein degradation rate (%)=1−target protein remaining (%).

[2] = molecular target: T2, IKZF3 (Homo sapiens, UniProt Q96SW2+Q9UKT9); test: Western blot degradation of IKZF3 in hPBMCs (24 h)
T2 construct: The supernatant was aspirated as the extracted total cell protein; endogenous in cells; host or cells: human peripheral blood mononuclear cells (hPBMCs)
Protocol: as §1, §2, §3, §4, §5, §6

[3] = molecular target: T3, GSPT1 (Homo sapiens, UniProt P15170+Q96SW2); test: Western blot degradation of GSPT1 in hPBMCs (24 h)
T3 construct: The supernatant was aspirated as the extracted total cell protein; endogenous in cells; host or cells: human peripheral blood mononuclear cells (hPBMCs)
Protocol: as §1, §2, §3, §4, §5, §6

[4] = molecular target: T4, CK1α (Homo sapiens, UniProt P48729+Q96SW2); test: Western blot degradation of CK1α in hPBMCs (24 h)
T4 construct: The supernatant was aspirated as the extracted total cell protein; endogenous in cells; host or cells: human peripheral blood mononuclear cells (hPBMCs)
Protocol: as §1, §2, §3, §4, §5, §6

[5] = molecular target: T5, WEE1 (Homo sapiens, UniProt P30291+Q96SW2); test: Western blot degradation of WEE1 in hPBMCs (24 h)
T5 construct: The supernatant was aspirated as the extracted total cell protein; endogenous in cells; host or cells: human peripheral blood mononuclear cells (hPBMCs)
Protocol: as §1, §2, §3, §4, §5, §6

[6] = molecular target: T6, IKZF1 (Homo sapiens, UniProt Q13422+Q96SW2); test: Western blot degradation of IKZF1 in hPBMCs (24 h)
T6 construct: The supernatant was aspirated as the extracted total cell protein; endogenous in cells; host or cells: human peripheral blood mononuclear cells (hPBMCs)
Protocol: as §1, §2, §3, §4, §5, §6

T3 sequence (P15170 whole entry): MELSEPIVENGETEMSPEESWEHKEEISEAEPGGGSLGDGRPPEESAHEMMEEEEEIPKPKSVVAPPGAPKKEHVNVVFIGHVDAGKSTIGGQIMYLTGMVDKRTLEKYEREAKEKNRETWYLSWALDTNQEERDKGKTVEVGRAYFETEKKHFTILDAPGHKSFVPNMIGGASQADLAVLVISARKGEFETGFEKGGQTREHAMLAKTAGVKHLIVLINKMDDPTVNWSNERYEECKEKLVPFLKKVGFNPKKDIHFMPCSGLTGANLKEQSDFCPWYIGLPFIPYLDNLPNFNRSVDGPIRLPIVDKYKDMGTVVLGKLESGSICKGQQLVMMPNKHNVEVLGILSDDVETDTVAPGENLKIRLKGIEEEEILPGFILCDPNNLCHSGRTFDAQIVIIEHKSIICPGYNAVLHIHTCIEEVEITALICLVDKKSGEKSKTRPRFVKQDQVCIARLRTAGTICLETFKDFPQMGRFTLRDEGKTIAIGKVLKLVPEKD
T3 sequence (Q96SW2 whole entry): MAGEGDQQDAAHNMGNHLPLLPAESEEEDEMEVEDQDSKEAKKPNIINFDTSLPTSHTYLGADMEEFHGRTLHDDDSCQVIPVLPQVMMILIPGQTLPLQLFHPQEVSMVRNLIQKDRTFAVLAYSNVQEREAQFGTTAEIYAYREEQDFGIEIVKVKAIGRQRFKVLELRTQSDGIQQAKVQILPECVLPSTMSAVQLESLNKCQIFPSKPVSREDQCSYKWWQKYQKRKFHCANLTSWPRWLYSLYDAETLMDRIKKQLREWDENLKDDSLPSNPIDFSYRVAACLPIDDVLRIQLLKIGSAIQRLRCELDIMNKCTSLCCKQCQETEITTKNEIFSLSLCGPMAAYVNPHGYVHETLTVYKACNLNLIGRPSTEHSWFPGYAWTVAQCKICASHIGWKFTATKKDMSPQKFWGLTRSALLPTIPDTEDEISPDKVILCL
T3 sequence (Q16531 whole entry partner): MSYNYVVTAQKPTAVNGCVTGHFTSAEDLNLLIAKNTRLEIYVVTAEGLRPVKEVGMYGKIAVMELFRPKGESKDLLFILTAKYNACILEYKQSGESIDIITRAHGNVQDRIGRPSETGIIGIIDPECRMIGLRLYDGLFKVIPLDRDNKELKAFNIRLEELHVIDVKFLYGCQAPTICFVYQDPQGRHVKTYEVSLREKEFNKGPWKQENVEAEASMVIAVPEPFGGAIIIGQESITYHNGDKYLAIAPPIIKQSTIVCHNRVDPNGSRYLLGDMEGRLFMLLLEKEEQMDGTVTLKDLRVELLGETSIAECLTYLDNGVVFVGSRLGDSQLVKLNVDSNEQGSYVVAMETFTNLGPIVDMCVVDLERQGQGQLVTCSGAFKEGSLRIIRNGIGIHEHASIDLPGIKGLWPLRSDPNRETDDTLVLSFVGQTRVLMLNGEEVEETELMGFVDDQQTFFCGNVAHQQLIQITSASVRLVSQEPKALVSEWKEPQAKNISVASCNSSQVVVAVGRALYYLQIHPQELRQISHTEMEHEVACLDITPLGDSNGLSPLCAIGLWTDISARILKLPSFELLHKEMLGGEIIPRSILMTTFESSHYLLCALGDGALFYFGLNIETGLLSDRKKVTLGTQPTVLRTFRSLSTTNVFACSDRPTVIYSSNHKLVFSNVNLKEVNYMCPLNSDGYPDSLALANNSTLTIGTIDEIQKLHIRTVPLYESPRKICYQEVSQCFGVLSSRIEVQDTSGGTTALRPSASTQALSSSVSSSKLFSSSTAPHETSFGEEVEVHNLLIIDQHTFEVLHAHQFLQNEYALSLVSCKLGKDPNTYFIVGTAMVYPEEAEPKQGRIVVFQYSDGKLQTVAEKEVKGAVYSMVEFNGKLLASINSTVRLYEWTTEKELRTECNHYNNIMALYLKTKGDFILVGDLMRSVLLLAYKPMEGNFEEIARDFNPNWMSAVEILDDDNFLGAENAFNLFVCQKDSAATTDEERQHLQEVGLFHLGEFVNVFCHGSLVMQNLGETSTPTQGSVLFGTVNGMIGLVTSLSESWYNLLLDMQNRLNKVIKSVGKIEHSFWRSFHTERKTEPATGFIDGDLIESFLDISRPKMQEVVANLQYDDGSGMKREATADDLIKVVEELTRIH
T1 sequence (Q9UKS7 whole entry): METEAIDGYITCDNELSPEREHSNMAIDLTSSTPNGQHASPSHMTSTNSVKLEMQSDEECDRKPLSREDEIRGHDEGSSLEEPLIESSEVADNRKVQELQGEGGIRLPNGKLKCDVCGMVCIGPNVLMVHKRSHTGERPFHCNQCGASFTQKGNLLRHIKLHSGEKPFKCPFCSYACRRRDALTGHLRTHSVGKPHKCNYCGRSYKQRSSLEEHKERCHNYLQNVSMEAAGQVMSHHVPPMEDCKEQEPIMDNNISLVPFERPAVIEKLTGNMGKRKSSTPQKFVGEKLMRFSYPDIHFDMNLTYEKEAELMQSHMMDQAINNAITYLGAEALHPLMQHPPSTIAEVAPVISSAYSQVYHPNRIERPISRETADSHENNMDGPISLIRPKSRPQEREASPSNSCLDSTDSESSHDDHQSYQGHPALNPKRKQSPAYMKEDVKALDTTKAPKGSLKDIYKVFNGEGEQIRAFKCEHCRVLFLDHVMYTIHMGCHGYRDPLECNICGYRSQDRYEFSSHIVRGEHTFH
T1 sequence (Q96SW2 whole entry): as the sequence (Q96SW2 whole entry) above
T1 sequence (Q16531 whole entry partner): as the sequence (Q16531 whole entry partner) above
T6 sequence (Q13422 whole entry): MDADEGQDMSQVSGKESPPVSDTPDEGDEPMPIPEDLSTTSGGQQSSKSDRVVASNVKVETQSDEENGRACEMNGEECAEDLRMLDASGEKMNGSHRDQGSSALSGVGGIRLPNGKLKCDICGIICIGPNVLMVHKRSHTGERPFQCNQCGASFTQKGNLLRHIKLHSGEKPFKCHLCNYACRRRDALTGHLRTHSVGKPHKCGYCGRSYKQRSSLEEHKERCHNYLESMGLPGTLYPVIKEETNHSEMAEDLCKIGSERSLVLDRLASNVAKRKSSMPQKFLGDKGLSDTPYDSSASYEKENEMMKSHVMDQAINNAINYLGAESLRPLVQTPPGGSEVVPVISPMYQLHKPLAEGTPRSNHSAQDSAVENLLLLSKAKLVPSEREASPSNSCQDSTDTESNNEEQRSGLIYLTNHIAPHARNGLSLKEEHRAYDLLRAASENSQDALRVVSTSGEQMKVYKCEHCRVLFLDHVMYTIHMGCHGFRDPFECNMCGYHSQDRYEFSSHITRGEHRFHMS
T6 sequence (Q96SW2 whole entry): as the sequence (Q96SW2 whole entry) above
T6 sequence (Q16531 whole entry partner): as the sequence (Q16531 whole entry partner) above
T4 sequence (P48729 whole entry): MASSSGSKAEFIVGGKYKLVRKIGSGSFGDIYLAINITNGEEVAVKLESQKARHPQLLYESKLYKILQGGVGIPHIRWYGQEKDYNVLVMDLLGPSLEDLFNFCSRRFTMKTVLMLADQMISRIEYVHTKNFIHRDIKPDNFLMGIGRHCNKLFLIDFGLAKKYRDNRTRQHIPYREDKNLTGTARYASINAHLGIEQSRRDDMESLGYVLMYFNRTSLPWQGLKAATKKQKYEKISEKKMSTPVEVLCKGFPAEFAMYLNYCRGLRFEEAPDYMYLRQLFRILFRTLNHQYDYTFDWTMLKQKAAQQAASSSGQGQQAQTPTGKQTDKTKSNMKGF
T4 sequence (Q96SW2 whole entry): as the sequence (Q96SW2 whole entry) above
T4 sequence (Q16531 whole entry partner): as the sequence (Q16531 whole entry partner) above
T2 sequence (Q9UKT9 whole entry): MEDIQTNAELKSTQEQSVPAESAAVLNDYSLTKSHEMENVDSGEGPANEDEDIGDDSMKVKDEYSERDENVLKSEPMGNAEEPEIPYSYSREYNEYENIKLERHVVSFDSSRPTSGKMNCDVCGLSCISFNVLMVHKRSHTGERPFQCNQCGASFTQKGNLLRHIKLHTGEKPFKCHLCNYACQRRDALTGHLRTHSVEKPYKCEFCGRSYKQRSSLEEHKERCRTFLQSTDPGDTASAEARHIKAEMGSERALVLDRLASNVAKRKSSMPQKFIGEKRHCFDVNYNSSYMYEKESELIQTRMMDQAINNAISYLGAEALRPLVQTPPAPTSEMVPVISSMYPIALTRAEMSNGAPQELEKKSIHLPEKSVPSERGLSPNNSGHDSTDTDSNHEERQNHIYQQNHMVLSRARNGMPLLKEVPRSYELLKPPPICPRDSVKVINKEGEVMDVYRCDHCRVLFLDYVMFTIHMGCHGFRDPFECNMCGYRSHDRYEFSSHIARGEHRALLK
T2 sequence (Q96SW2 whole entry): as the sequence (Q96SW2 whole entry) above
T2 sequence (Q16531 whole entry partner): as the sequence (Q16531 whole entry partner) above

| SMILES | IKZF2 substrate protein remaining % [1] | IKZF3 substrate protein remaining % [2] | GSPT1 substrate protein remaining % [3] | CK1α substrate protein remaining % [4] | WEE1 substrate protein remaining % [5] | IKZF1 substrate protein remaining % [6] |
| --- | --- | --- | --- | --- | --- | --- |
| O=C1CCN(N2Cc3cc(CN4CCN(c5cc(Cl)ccn5)CC4)ccc3C2=O)C(=O)N1 [GT-05128, 1-(5-((4-(4-chloropyridin-2-yl)piperazin-1-yl)methyl)-1-oxoisoindolin-2-yl)dihydropyrimidine-2,4(1H,3H)-dione] | A (0% ≤ substrate protein remaining % ≤80%) | A (0% ≤ substrate protein remaining % ≤80%) | A (0% ≤ substrate protein remaining % ≤80%) | A (0% ≤ substrate protein remaining % ≤80%) | A (0% ≤ substrate protein remaining % ≤80%) | A (0% ≤ substrate protein remaining % ≤80%) |
| O=C1CCN(N2Cc3cc(CN4CCN(c5ncccc5F)CC4)ccc3C2=O)C(=O)N1 [GT-05129, 1-(5-((4-(3-fluoropyridin-2-yl)piperazin-1-yl)methyl)-1-oxoisoindolin-2-yl)dihydropyrimidine-2,4(1H,3H)-dione] | A (0% ≤ substrate protein remaining % ≤80%) | A (0% ≤ substrate protein remaining % ≤80%) | A (0% ≤ substrate protein remaining % ≤80%) | A (0% ≤ substrate protein remaining % ≤80%) | A (0% ≤ substrate protein remaining % ≤80%) | A (0% ≤ substrate protein remaining % ≤80%) |
| O=C1CCN(N2Cc3cc(CN4CCN(c5cccc(F)n5)CC4)ccc3C2=O)C(=O)N1 [GT-05130, 1-(5-((4-(6-fluoropyridin-2-yl)piperazin-1-yl)methyl)-1-oxoisoindolin-2-yl)dihydropyrimidine-2,4(1H,3H)-dione] | A (0% ≤ substrate protein remaining % ≤80%) | A (0% ≤ substrate protein remaining % ≤80%) | A (0% ≤ substrate protein remaining % ≤80%) | A (0% ≤ substrate protein remaining % ≤80%) | A (0% ≤ substrate protein remaining % ≤80%) | A (0% ≤ substrate protein remaining % ≤80%) |
| O=C1CCN(N2Cc3cc(CN4CCN(c5ccc(F)cn5)CC4)ccc3C2=O)C(=O)N1 [GT-05131, 1-(5-((4-(5-fluoropyridin-2-yl)piperazin-1-yl)methyl)-1-oxoisoindolin-2-yl)dihydropyrimidine-2,4(1H,3H)-dione] | A (0% ≤ substrate protein remaining % ≤80%) | A (0% ≤ substrate protein remaining % ≤80%) | A (0% ≤ substrate protein remaining % ≤80%) | A (0% ≤ substrate protein remaining % ≤80%) | A (0% ≤ substrate protein remaining % ≤80%) | A (0% ≤ substrate protein remaining % ≤80%) |
| O=C1CCN(N2Cc3cc(CN4C5CC4CN(c4cccc(Cl)c4Cl)C5)ccc3C2=O)C(=O)N1 [GT-05162, 1-(5-((3-(2,3-dichlorophenyl)-3,6-diazabicyclo[3.1.1]heptan-6-yl)methyl)-1-oxoisoindolin-2-yl)dihydropyrimidine-2,4(1H,3H)-dione] | B (80%< substrate protein remaining % ≤100%) | A (0% ≤ substrate protein remaining % ≤80%) | A (0% ≤ substrate protein remaining % ≤80%) | B (80%< substrate protein remaining % ≤100%) | B (80%< substrate protein remaining % ≤100%) | B (80%< substrate protein remaining % ≤100%) |
| O=C1CCN(N2C(=O)c3ccc(CN4CCC(N(c5ccccc5)c5ccccc5)CC4)cc3C2=O)C(=O)N1 [GT-05177, 2-(2,4-dioxotetrahydropyrimidin-1(2H)-yl)-5-((4-(diphenylamino)piperidin-1-yl)methyl)isoindoline-1,3-dione] | B (80%< substrate protein remaining % ≤100%) | B (80%< substrate protein remaining % ≤100%) | A (0% ≤ substrate protein remaining % ≤80%) | B (80%< substrate protein remaining % ≤100%) | B (80%< substrate protein remaining % ≤100%) | B (80%< substrate protein remaining % ≤100%) |
| O=C1CCN(N2C(=O)c3ccc(CN4CCC(Nc5ccccc5-c5ccc(Cl)cc5)CC4)cc3C2=O)C(=O)N1 [GT-05179, 5-((4-((4′-chloro-[1,1′-biphenyl]-2-yl)amino)piperidin-1-yl)methyl)-2-(2,4-dioxotetrahydropyrimidin-1(2H)-yl)isoindoline-1,3-dione] | B (80%< substrate protein remaining % ≤100%) | B (80%< substrate protein remaining % ≤100%) | B (80%< substrate protein remaining % ≤100%) | B (80%< substrate protein remaining % ≤100%) | A (0% ≤ substrate protein remaining % ≤80%) | B (80%< substrate protein remaining % ≤100%) |
| CC1(C)CCC(CN2CCN(Cc3ccc4c(c3)C(=O)N(N3CCC(=O)NC3=O)C4=O)CC2)=C(c2ccc(Cl)cc2)C1 [GT-05180, 5-((4-((4′-chloro-5,5-dimethyl-3,4,5,6-tetrahydro-[1,1′-biphenyl]-2-yl)methyl)piperazin-1-yl)methyl)-2-(2,4-dioxotetrahydropyrimidin-1(2H)-yl)isoindoline-1,3-dione] | B (80%< substrate protein remaining % ≤100%) | B (80%< substrate protein remaining % ≤100%) | B (80%< substrate protein remaining % ≤100%) | B (80%< substrate protein remaining % ≤100%) | A (0% ≤ substrate protein remaining % ≤80%) | B (80%< substrate protein remaining % ≤100%) |
| O=C1CCN(N2C(=O)c3ccc(CN4CC=C(c5c[nH]c6ncccc56)CC4)cc3C2=O)C(=O)N1 [GT-05181, 5-((4-(1H-pyrrolo[2,3-b]pyridin-3-yl)-3,6-dihydropyridin-1(2H)-yl)methyl)-2-(2,4-dioxotetrahydropyrimidin-1(2H)-yl)isoindoline-1,3-dione] | B (80%< substrate protein remaining % ≤100%) | B (80%< substrate protein remaining % ≤100%) | B (80%< substrate protein remaining % ≤100%) | B (80%< substrate protein remaining % ≤100%) | A (0% ≤ substrate protein remaining % ≤80%) | B (80%< substrate protein remaining % ≤100%) |
| O=C1CCN(N2C(=O)c3ccc(CN4CC=C(c5cccc(Cl)c5Cl)CC4)cc3C2=O)C(=O)N1 [GT-05249, 5-((4-(2,3-dichlorophenyl)-3,6-dihydropyridin-1(2H)-yl)methyl)-2-(2,4-dioxotetrahydropyrimidin-1(2H)-yl)isoindoline-1,3-dione] | B (80%< substrate protein remaining % ≤100%) | B (80%< substrate protein remaining % ≤100%) | A (0% ≤ substrate protein remaining % ≤80%) | B (80%< substrate protein remaining % ≤100%) | B (80%< substrate protein remaining % ≤100%) | A (0% ≤ substrate protein remaining % ≤80%) |

Reference: US20260356819A1, “OXOISOINDOLINYL-SUBSTITUTED […] DERIVATIVE AND USE THEREOF” (GLUETACS THERAPEUTICS (SHANGHAI) CO., LTD., priority 2023, published 2026)
